The format of the series is in vivo, human.

Molecules are shown by their SMILES. Like-named read-outs stand apart in the source and are kept apart here.

Regarding `CC/C(=C(\c1ccccc1)c1ccc(OCCNC)cc1)c1ccccc1` [N-desmethyltamoxifen], the “Association of season with N-desmethyltamoxifen concentration, β” value (secondary screen, fall compared to winter) is listed as −1.053. Also, the “Association of weight with N-desmethyltamoxifen concentration, β” value (secondary screen, greater weight) was −0.025.
On to `CC/C(=C(\c1ccc(O)cc1)c1ccc(OCCNC)cc1)c1ccccc1` [endoxifen], for which the “Final multivariable model, steady-state endoxifen concentration, B Coefficient (95% Confidence Interval)” value (CYP2C9 Activity Phenotype) is “.20 (0.03, 0.37)”; the “Final multivariable model, steady-state endoxifen concentration, B Coefficient (95% Confidence Interval)” value (CYP2D6 Diplotype IM/IM (vs. NM/NM)) was “−.87 (−1.4, −.34)”; the “Final multivariable model, steady-state endoxifen concentration, B Coefficient (95% Confidence Interval)” value (CYP2D6 Diplotype IM/PM (vs. NM/NM)) is “−.96 (−1.3, −.61)”; the “Final multivariable model, steady-state endoxifen concentration, B Coefficient (95% Confidence Interval)” value (CYP2D6 Diplotype NM/IM (vs. NM/NM)) is reported as “−.35 (−.61, −.08)”; the “Final multivariable model, steady-state endoxifen concentration, B Coefficient (95% Confidence Interval)” value (CYP2D6 Diplotype NM/PM (vs. NM/NM)) is on record as “−.49 (−.73, −.26)”; the “Final multivariable model, steady-state endoxifen concentration, B Coefficient (95% Confidence Interval)” value (CYP2D6 Diplotype PM/PM (vs. NM/NM)) is reported as −1.32 (−1.79, −.85). The “Final multivariable model, steady-state endoxifen concentration, B Coefficient (95% Confidence Interval)” value reads like this: (Season of Sample Collection Fall (vs. winter)) “−.48 (−.74, −.22)”; (Season of Sample Collection Summer (vs. winter)) “−.49 (−.79, −.19)”; (Weight (kg)) “−.013 (−.02, −.01)”. Also, the “Association of SULT1A1 activity with endoxifen/4-OH-tamoxifen ratio, β” value (secondary screen, higher SULT1A1 predicted activity phenotype) is given as 0.54. Further, where the note is “secondary screen, increased CYP2C8 predicted activity phenotype”, the “Association of CYP2C8 activity with ratio of endoxifen to N-desmethyltamoxifen, β” value is 0.01. In addition, the “Mean Endoxifen (Std. Dev.)” value was 7.01 (4.41) n=60 ng/mL (steady state, tamoxifen 20 mg daily, ABCB1 predicted activity phenotype Normal); 8.93 (7.53) n=37 ng/mL (steady state, tamoxifen 20 mg daily, ABCB1 predicted activity phenotype Poor); 8.29 (4.99) n=89 ng/mL (steady state, tamoxifen 20 mg daily, ABCC2 predicted activity phenotype Normal); 9.30 (5.34) n=10 ng/mL (steady state, tamoxifen 20 mg daily, ABCC2 predicted activity phenotype Poor); 7.90 (5.48) n=249 ng/mL (steady state, tamoxifen 20 mg daily, ABCG2 predicted activity phenotype Normal); 12.82 (10.85) n=3 ng/mL (steady state, tamoxifen 20 mg daily, ABCG2 predicted activity phenotype Poor). The “Mean Endoxifen (Std. Dev.)” value by setting is: (steady state, tamoxifen 20 mg daily, CYP1A1 predicted activity phenotype Normal) 8.05 (5.51) n=248 ng/mL; (steady state, tamoxifen 20 mg daily, CYP1A1 predicted activity phenotype Poor) 3.19 (1.53) n=2 ng/mL; (steady state, tamoxifen 20 mg daily, CYP1A2 predicted activity phenotype Normal) 8.13 (4.48) n=22 ng/mL; (steady state, tamoxifen 20 mg daily, CYP1A2 predicted activity phenotype Poor) 9.57 (6.18) n=6 ng/mL; (steady state, tamoxifen 20 mg daily, CYP2A6 predicted activity phenotype Normal) 7.95 (5.57) n=220 ng/mL; (steady state, tamoxifen 20 mg daily, CYP2A6 predicted activity phenotype Poor) 7.46 (9.71) n=5 ng/mL. Moreover, the “Mean Endoxifen (Std. Dev.)” value reads like this: (steady state, tamoxifen 20 mg daily, CYP2B6 predicted activity phenotype Normal) 8.11 (5.33) n=151 ng/mL; (steady state, tamoxifen 20 mg daily, CYP2B6 predicted activity phenotype Poor) 8.20 (4.81) n=24 ng/mL; (steady state, tamoxifen 20 mg daily, CYP2C8 predicted activity phenotype Normal) 8.38 (5.72) n=205 ng/mL; (steady state, tamoxifen 20 mg daily, CYP2C8 predicted activity phenotype Poor) 6.71 (5.04) n=13 ng/mL; (steady state, tamoxifen 20 mg daily, CYP2C9 predicted activity phenotype Normal) 8.29 (5.61) n=189 ng/mL; (steady state, tamoxifen 20 mg daily, CYP2C9 predicted activity phenotype Poor) 6.26 (4.82) n=9 ng/mL. The “Mean Endoxifen (Std. Dev.)” value is on record as 7.64 (5.97) n=109 ng/mL (steady state, tamoxifen 20 mg daily, CYP2C19 predicted activity phenotype Normal); 7.95 (5.66) n=13 ng/mL (steady state, tamoxifen 20 mg daily, CYP2C19 predicted activity phenotype Poor); 8.03 (5.40) n=84 ng/mL (steady state, tamoxifen 20 mg daily, CYP2E1 predicted activity phenotype Normal); 7.78 (5.39) n=288 ng/mL (steady state, tamoxifen 20 mg daily, CYP3A4 predicted activity phenotype Normal); 8.51 (7.70) n=8 ng/mL (steady state, tamoxifen 20 mg daily, CYP3A5 predicted activity phenotype Normal); 7.71 (5.29) n=240 ng/mL (steady state, tamoxifen 20 mg daily, CYP3A5 predicted activity phenotype Poor). The “Mean Endoxifen (Std. Dev.)” value was 8.63 (5.57) n=87 ng/mL (steady state, tamoxifen 20 mg daily, SLCO1B1 predicted activity phenotype Normal); 6.97 (4.21) n=62 ng/mL (steady state, tamoxifen 20 mg daily, SLCO1B1 predicted activity phenotype Poor); 7.56 (4.51) n=111 ng/mL (steady state, tamoxifen 20 mg daily, SULT1A1 predicted activity phenotype Normal); 7.81 (6.59) n=45 ng/mL (steady state, tamoxifen 20 mg daily, SULT1A1 predicted activity phenotype Poor); 7.94 (5.23) n=84 ng/mL (steady state, tamoxifen 20 mg daily, SULT1A2 predicted activity phenotype Normal); 7.72 (5.70) n=74 ng/mL (steady state, tamoxifen 20 mg daily, SULT1A2 predicted activity phenotype Poor). The “Mean Endoxifen (Std. Dev.)” value reads like this: (steady state, tamoxifen 20 mg daily, UGT2B7 predicted activity phenotype Normal) 7.11 (5.09) n=73 ng/mL; (steady state, tamoxifen 20 mg daily, UGT2B7 predicted activity phenotype Poor) 8.38 (5.36) n=63 ng/mL; (steady state, tamoxifen 20 mg daily, UGT2B15 predicted activity phenotype Normal) 8.07 (5.82) n=71 ng/mL; (steady state, tamoxifen 20 mg daily, UGT2B15 predicted activity phenotype Poor) 7.75 (4.48) n=75 ng/mL; (steady state, tamoxifen 20 mg daily, UGT2B17 predicted activity phenotype Normal) 7.83 (5.25) n=122 ng/mL; (steady state, tamoxifen 20 mg daily, UGT2B17 predicted activity phenotype Poor) 6.60 (5.48) n=35 ng/mL.
`CC/C(=C(\c1ccccc1)c1ccc(OCCN(C)C)cc1)c1ccccc1` [tamoxifen, reference compound]: under “steady state, tamoxifen 20 mg daily”, the “tamoxifen concentrations by season of sample collection” value is reported as “not different between the seasons”.
